In this experiment the target is T1, histamine H3 receptor (Homo sapiens, UniProt Q9Y5N1).
T1 construct: expressed in transfected cells; host or cells: CHO K1 cells carrying pSwitch, transfected with pGeneH3 and induced with mifepristone; clone 3H3; membranes
T1 sequence (Q9Y5N1 whole entry): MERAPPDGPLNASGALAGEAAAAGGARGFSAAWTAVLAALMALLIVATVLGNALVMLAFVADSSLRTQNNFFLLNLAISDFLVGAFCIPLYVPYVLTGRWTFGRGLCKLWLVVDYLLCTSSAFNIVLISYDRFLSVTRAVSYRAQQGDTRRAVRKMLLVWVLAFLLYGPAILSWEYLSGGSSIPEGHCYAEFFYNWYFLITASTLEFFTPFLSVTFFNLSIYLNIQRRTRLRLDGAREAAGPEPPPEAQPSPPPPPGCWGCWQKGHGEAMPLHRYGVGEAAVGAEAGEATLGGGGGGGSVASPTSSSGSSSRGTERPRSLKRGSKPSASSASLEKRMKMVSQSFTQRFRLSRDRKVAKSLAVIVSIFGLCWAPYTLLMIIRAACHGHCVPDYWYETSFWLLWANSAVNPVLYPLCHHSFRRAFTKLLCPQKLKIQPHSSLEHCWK
Briefly: Histamine H3 functional antagonist assay ([35S]GTPγS SPA, membranes of CHO K1 cells expressing human H3). The experiment is classed as biochemical. As to conditions: functional antagonism of histamine (0.3 μM) stimulated [35S]GTPγS binding, membranes of CHO K1 cells with human histamine H3. The procedure:
A membrane preparation containing histamine H3 receptors may be prepared in accordance with the following procedures:
Ligated DNA was transformed into competent DH5α E. coli host bacterial cells and plated onto Luria Broth (LB) agar containing Zeocin™ (an antibiotic which allows the selection of cells expressing the sh ble gene which is present on pGene and pSwitch) at 50 μg ml^−1. Colonies containing the re-ligated plasmid were identified by restriction analysis. DNA for transfection into mammalian cells was prepared from 250 ml cultures of the host bacterium containing the pGeneH3 plasmid and isolated using a DNA preparation kit (Qiagen Midi-Prep) as per manufacturers guidelines (Qiagen).
CHO K1 cells previously transfected with the pSwitch regulatory plasmid (InVitrogen) were seeded at 2×10e6 cells per T75 flask in Complete Medium, containing Hams F12 (GIBCOBRL, Life Technologies) medium supplemented with 10% v/v dialysed foetal bovine serum, L-glutamine, and hygromycin (100 μg ml^−1), 24 hours prior to use. Plasmid DNA was transfected into the cells using Lipofectamine plus according to the manufacturers guidelines (InVitrogen). 48 hours post transfection cells were placed into complete medium supplemented with 500 μg ml^−1 Zeocin™.
10-14 days post selection 10 nM Mifepristone (InVitrogen), was added to the culture medium to induce the expression of the receptor. […] Approximately 1×10e7 cells were examined for receptor expression by staining with a rabbit polyclonal antibody, 4a, raised against the N-terminal domain of the histamine H3 receptor, incubated on ice for 60 minutes, followed by two washes in sorting medium. […] Following two further washes with Sorting Medium, cells were filtered through a 50 μm Filcon™ (BD Biosciences) and then analysed on a FACS Vantage SE Flow Cytometer fitted with an Automatic Cell Deposition Unit. […] Positively stained cells were sorted as single cells into 96-well plates, containing Complete Medium containing 500 μg ml^−1 Zeocin™ and allowed to expand before reanalysis for receptor expression via antibody and ligand binding studies.
All steps of the protocol are carried out at 4° C. and with pre-cooled reagents. The cell pellet is resuspended in 10 volumes of buffer A2 containing 50 mM N-2-hydroxyethylpiperazine-N′-2-ethanesulfonic acid (HEPES)(pH 7.40) supplemented with 10e−4M leupeptin (acetyl-leucyl-leucyl-arginal; Sigma L2884), 25 μg/ml bacitracin (Sigma B0125), 1 mM ethylenediamine tetra-acetic acid (EDTA), 1 mM phenylmethylsulfonyl fluoride (PMSF) and 2×10e−6M pepstain A (Sigma). The cells are then homogenised by 2×15 second bursts in a 1 litre glass Waring blender, followed by centrifugation at 500 g for 20 minutes. The supernatant is then spun at 48,000 g.for 30 minutes. The pellet is resuspended in 4 volumes of buffer A2 by vortexing for 5 seconds, followed by homogenisation in a Dounce homogeniser (10-15 strokes). At this point the preparation is aliquoted into polypropylene tubes and stored at −70° C. […]
The plate is then incubated on a shaker at room temperature for 30 minutes followed by centrifugation for 5 minutes at 1500 rpm. The plate is read between 3 and 6 hours after completion of centrifuge run in a Wallac Microbeta counter on a 1 minute normalised tritium count protocol. Data is analysed using a 4-parameter logistic equation. Basal activity used as minimum i.e. histamine not added to well.
Background: GTPγS is a poorly hydrolysed GTP analogue; its binding reports G protein activation.
The term Kb denotes the affinity of an antagonist, worked out from how it opposes an agonist. A lower Kb goes with a more potent antagonist. Compound `CC(C)N1CCCN(C(=O)C2CCN(c3ccc(C(F)(F)F)nn3)CC2)CC1` [Example E138, 1-Isopropyl-4-[1-(6-trifluoromethylpyridazin-3-yl)-piperidine-4-carbonyl]-[1,4]-diazepane] gave a Kb of less than 3.16 nM.

Regarding `CC(C)N1CCCN(C(=O)C2CCN(c3cnc(C(F)(F)F)cn3)CC2)CC1` [Example E139, 1-Isopropyl-4-[1-(5-trifluoromethylpyrazin-2-yl)-piperidine4-carbonyl]-[1,4]-diazepane], the Kb was less than 3.16 nM.

In turn, `CC(=O)c1ccc(N2CCC(C(=O)N3CCCN(C(C)C)CC3)CC2)cc1` [Example E150, 1-Isopropyl-4-[1-(4-acetylphenyl)-piperidine-4-carbonyl]-[1,4]-diazepane] showed a Kb of less than 1 nM.

In turn, `CCC(=O)c1ccc(N2CCC(C(=O)N3CCCN(C(C)C)CC3)CC2)cc1` [Example E151, 1-Isopropyl-4-[1-(4-propanoylphenyl)-piperidine-4-carbonyl]-[1,4]-diazepane] gave a Kb of less than 1 nM.

`Cc1ncc(-c2ccc(N3CCC(C(=O)N4CCCN(C(C)C)CC4)CC3)cc2)o1` [Example E154, 1-Isopropyl-4-{1-[4-(2-methyl-1,3-oxazol-5-yl)phenyl]-piperidine4-carbonyl}-[1,4]-diazepane] showed a Kb of less than 3.16 nM.

In the case of `Cc1noc(-c2ccc(N3CCC(C(=O)N4CCCN(C(C)C)CC4)CC3)cc2)n1` [Example E168, 1-Isopropyl-4-{1-[4-(3-methyl-1,2,4-oxadiazol-5-yl)phenyl]-piperidine-4-carbonyl}-[1,4]-diazepane], the Kb is less than 3.16 nM.

The compound `CC(=O)Nc1ccc(N2CCC(C(=O)N3CCCN(C(C)C)CC3)CC2)cc1F` [Example E169, 1-Isopropyl-4-[1-(4-acetamido-3-fluorophenyl)-piperidine4-carbonyl]-[1,4]-diazepane] had a Kb of less than 3.16 nM.

With `CC(=O)c1ccc(N2CCC(C(=O)N3CCCN(C4CCC4)CC3)CC2)cc1` [Example E170, 1-Cyclobutyl-4-[1-(4-acetylphenyl)-piperidine-4-carbonyl]-[1,4]-diazepane], the antagonist dissociation constant (Kb) is less than 3.16 nM.

Compound `N#Cc1ccc(N2CCC(C(=O)N3CCCN(C4CCC4)CC3)CC2)cn1` [Example E179, 1-Cyclobutyl-4-[1-(6-cyano-pyridin-3-yl)-piperidine-4-carbonyl]-[1,4]-diazepane] gave a Kb of less than 3.16 nM.

`CC(C)N1CCCN(C(=O)C2CCN(c3ccc(C#N)nc3)CC2)CC1` [Example E180, 1-Isopropyl-4-[1-(6-cyano-pyridin-3-yl)-piperidine-4-carbonyl]-[1,4]-diazepane] showed an antagonist equilibrium constant (Kb) of less than 3.16 nM.

Compound `Cc1noc(-c2ccc(N3CCC(C(=O)N4CCN(C(C)C)CC4)CC3)cc2)n1` [Example E185, 1-Isopropyl-4-{1-[4-(3-methyl-1,2,4-oxadiazol-5-yl)phenyl]-piperidine-4-carbonyl}-piperazine] had an antagonist dissociation constant (Kb) of less than 3.16 nM.

Compound `CC(C)N1CCCN(C(=O)C2CCN(c3cnc(C(F)(F)F)nc3)CC2)CC1` [Example E198, 1-Isopropyl-4-[1-(2-trifluoromethylpyrimidin-5-yl)-piperidine-4-carbonyl]-[1,4]-diazepane] showed a Kb of less than 3.16 nM.

Source of the values: patent US7592347B2, “Piperazine derivates and their use for the treatment of neurological and psychiatric diseases” (Glaxo Group Limited, priority 2003, dated 2009).
